Like-named read-outs stand apart in the source and are kept apart here.
For `COc1ncc(-c2nc3c(n2C(C)C)[C@H](c2ccc(Cl)cc2)N(c2cc(Cl)cn(C)c2=O)C3=O)c(OC)n1` [HDM201, (S)-5-(5-Chloro-1-methyl-2-oxo-1,2-dihydro-pyridin-3-yl)-6-(4-chloro-phenyl)-2-(2,4-dimethoxy-pyrimidin-5-yl)-1-isopropyl-5,6-dihydro-1H-pyrrolo[3,4-d]imidazol-4-one], the “Hyperkalaemia, Grade 3/4” value (1B 200 mg, N=3) was 0 n (%), the “Hypocalcaemia, All Grades” value (1B 200 mg, N=3) was 0 n (%) and the “Hypocalcaemia, Grade 3/4” value (1B 200 mg, N=3) was 0 n (%). The “Influenza Like Illness, All Grades” value (1B 200 mg, N=3) was 0 n (%), the “Influenza Like Illness, Grade 3/4” value (1B 200 mg, N=3) was 0 n (%) and the “Lethargy, All Grades” value (1B 200 mg, N=3) was 0 n (%). For the same molecule, the “Lethargy, Grade 3/4” value (1B 200 mg, N=3) was 0 n (%), the “Leukopenia, All Grades” value (1B 200 mg, N=3) was 0 n (%) and the “Leukopenia, Grade 3/4” value (1B 200 mg, N=3) was 0 n (%). For the same molecule, the “Lipase Increased, All Grades” value (1B 200 mg, N=3) was 1 (33.3) n (%), the “Lipase Increased, Grade 3/4” value (1B 200 mg, N=3) was 1 (33.3) n (%) and the “Lymphopenia, All Grades” value (1B 200 mg, N=3) was 0 n (%). The “Lymphopenia, Grade 3/4” value (1B 200 mg, N=3) was 0 n (%), the “Monocytosis, All Grades” value (1B 200 mg, N=3) was 0 n (%) and the “Monocytosis, Grade 3/4” value (1B 200 mg, N=3) was 0 n (%). For the same molecule, the “Musculoskeletal Pain, All Grades” value (1B 200 mg, N=3) was 0 n (%), the “Musculoskeletal Pain, Grade 3/4” value (1B 200 mg, N=3) was 0 n (%) and the “Myalgia, All Grades” value (1B 200 mg, N=3) was 0 n (%). For the same molecule, the “Myalgia, Grade 3/4” value (1B 200 mg, N=3) was 0 n (%), the “Nausea, All Grades” value (1B 200 mg, N=3) was 1 (33.3) n (%) and the “Nausea, Grade 3/4” value (1B 200 mg, N=3) was 0 n (%). For the same molecule, the “Neuralgia, All Grades” value (1B 200 mg, N=3) was 0 n (%), the “Neuralgia, Grade 3/4” value (1B 200 mg, N=3) was 0 n (%) and the “Neutropenia, All Grades” value (1B 200 mg, N=3) was 0 n (%). For the same molecule, the “Neutropenia, Grade 3/4” value (1B 200 mg, N=3) was 0 n (%), the “Neutrophil Count Decreased, All Grades” value (1B 200 mg, N=3) was 0 n (%) and the “Neutrophil Count Decreased, Grade 3/4” value (1B 200 mg, N=3) was 0 n (%). For the same molecule, the “Oedema, All Grades” value (1B 200 mg, N=3) was 1 (33.3) n (%), the “Oedema, Grade 3/4” value (1B 200 mg, N=3) was 0 n (%) and the “Oral Candidiasis, All Grades” value (1B 200 mg, N=3) was 0 n (%). The “Oral Candidiasis, Grade 3/4” value (1B 200 mg, N=3) was 0 n (%), the “Platelet Count Decreased, All Grades” value (1B 200 mg, N=3) was 0 n (%) and the “Platelet Count Decreased, Grade 3/4” value (1B 200 mg, N=3) was 0 n (%). For the same molecule, the “Pruritus, All Grades” value (1B 200 mg, N=3) was 0 n (%), the “Pruritus, Grade 3/4” value (1B 200 mg, N=3) was 0 n (%) and the “Thrombocytopenia, All Grades” value (1B 200 mg, N=3) was 0 n (%). For the same molecule, the “Thrombocytopenia, Grade 3/4” value (1B 200 mg, N=3) was 0 n (%), the “Total, All Grades” value (1B 200 mg, N=3) was 3 (100) n (%) and the “Total, Grade 3/4” value (1B 200 mg, N=3) was 1 (33.3) n (%). For the same molecule, the “Vomiting, All Grades” value (1B 200 mg, N=3) was 0 n (%), the “Vomiting, Grade 3/4” value (1B 200 mg, N=3) was 0 n (%) and the “Weight Decreased, All Grades” value (1B 200 mg, N=3) was 0 n (%). The “Weight Decreased, Grade 3/4” value (1B 200 mg, N=3) was 0 n (%), the “White Blood Cell Count Decreased, All Grades” value (1B 200 mg, N=3) was 0 n (%) and the “White Blood Cell Count Decreased, Grade 3/4” value (1B 200 mg, N=3) was 0 n (%). For the same molecule, the “Abdominal Pain, All Grades” value (1B all subjects, N=20) was 3 n (%), the “Abdominal Pain, Grade 3/4” value (1B all subjects, N=20) was 0 n (%) and the “Alanine Aminotransferase Increased, All Grades” value (1B all subjects, N=20) was 1 n (%). The “Alanine Aminotransferase Increased, Grade 3/4” value (1B all subjects, N=20) was 0 n (%), the “Alopecia, All Grades” value (1B all subjects, N=20) was 1 n (%) and the “Alopecia, Grade 3/4” value (1B all subjects, N=20) was 0 n (%). The “Amylase Increased, All Grades” value (1B all subjects, N=20) was 1 n (%), the “Amylase Increased, Grade 3/4” value (1B all subjects, N=20) was 0 n (%) and the “Anaemia, All Grades” value (1B all subjects, N=20) was 5 n (%). For the same molecule, the “Anaemia, Grade 3/4” value (1B all subjects, N=20) was 0 n (%), the “Asthenia, All Grades” value (1B all subjects, N=20) was 2 n (%) and the “Asthenia, Grade 3/4” value (1B all subjects, N=20) was 0 n (%). The “Blood Bilirubin Increased, All Grades” value (1B all subjects, N=20) was 1 n (%), the “Blood Bilirubin Increased, Grade 3/4” value (1B all subjects, N=20) was 0 n (%) and the “Blood Creatine Phosphokinase Increased, All Grades” value (1B all subjects, N=20) was 2 n (%). For the same molecule, the “Blood Creatine Phosphokinase Increased, Grade 3/4” value (1B all subjects, N=20) was 1 n (%), the “Blood Creatinine Increased, All Grades” value (1B all subjects, N=20) was 2 n (%) and the “Blood Creatinine Increased, Grade 3/4” value (1B all subjects, N=20) was 0 n (%). For the same molecule, the “Decreased Appetite, All Grades” value (1B all subjects, N=20) was 4 n (%), the “Decreased Appetite, Grade 3/4” value (1B all subjects, N=20) was 0 n (%) and the “Dehydration, All Grades” value (1B all subjects, N=20) was 1 n (%). For the same molecule, the “Dehydration, Grade 3/4” value (1B all subjects, N=20) was 0 n (%), the “Diarrhoea, All Grades” value (1B all subjects, N=20) was 5 n (%) and the “Diarrhoea, Grade 3/4” value (1B all subjects, N=20) was 0 n (%). For the same molecule, the “Dry Skin, All Grades” value (1B all subjects, N=20) was 1 n (%), the “Dry Skin, Grade 3/4” value (1B all subjects, N=20) was 0 n (%) and the “Dysgeusia, All Grades” value (1B all subjects, N=20) was 1 n (%). The “Dysgeusia, Grade 3/4” value (1B all subjects, N=20) was 0 n (%), the “Eye Pain, All Grades” value (1B all subjects, N=20) was 1 n (%) and the “Eye Pain, Grade 3/4” value (1B all subjects, N=20) was 0 n (%). The “Fatigue, All Grades” value (1B all subjects, N=20) was 4 n (%), the “Fatigue, Grade 3/4” value (1B all subjects, N=20) was 1 n (%) and the “Folliculitis, All Grades” value (1B all subjects, N=20) was 1 n (%). For the same molecule, the “Folliculitis, Grade 3/4” value (1B all subjects, N=20) was 0 n (%), the “Gamma-Glutamyltransferase Increased, All Grades” value (1B all subjects, N=20) was 1 n (%) and the “Gamma-Glutamyltransferase Increased, Grade 3/4” value (1B all subjects, N=20) was 0 n (%). The “Headache, All Grades” value (1B all subjects, N=20) was 1 n (%), the “Headache, Grade 3/4” value (1B all subjects, N=20) was 0 n (%) and the “Hyperkalaemia, All Grades” value (1B all subjects, N=20) was 1 n (%). The “Hyperkalaemia, Grade 3/4” value (1B all subjects, N=20) was 0 n (%), the “Hypocalcaemia, All Grades” value (1B all subjects, N=20) was 1 n (%) and the “Hypocalcaemia, Grade 3/4” value (1B all subjects, N=20) was 0 n (%). The “Influenza Like Illness, All Grades” value (1B all subjects, N=20) was 1 n (%), the “Influenza Like Illness, Grade 3/4” value (1B all subjects, N=20) was 0 n (%) and the “Lethargy, All Grades” value (1B all subjects, N=20) was 1 n (%). For the same molecule, the “Lethargy, Grade 3/4” value (1B all subjects, N=20) was 0 n (%), the “Leukopenia, All Grades” value (1B all subjects, N=20) was 2 n (%) and the “Leukopenia, Grade 3/4” value (1B all subjects, N=20) was 1 n (%). For the same molecule, the “Lipase Increased, All Grades” value (1B all subjects, N=20) was 4 n (%), the “Lipase Increased, Grade 3/4” value (1B all subjects, N=20) was 3 n (%) and the “Lymphopenia, All Grades” value (1B all subjects, N=20) was 2 n (%). The “Lymphopenia, Grade 3/4” value (1B all subjects, N=20) was 1 n (%), the “Monocytosis, All Grades” value (1B all subjects, N=20) was 1 n (%) and the “Monocytosis, Grade 3/4” value (1B all subjects, N=20) was 0 n (%). The “Musculoskeletal Pain, All Grades” value (1B all subjects, N=20) was 1 n (%), the “Musculoskeletal Pain, Grade 3/4” value (1B all subjects, N=20) was 0 n (%) and the “Myalgia, All Grades” value (1B all subjects, N=20) was 1 n (%). The “Myalgia, Grade 3/4” value (1B all subjects, N=20) was 0 n (%) and the “Nausea, All Grades” value (1B all subjects, N=20) was 12 n (%).
